“And” between values parts separate entries of the source, which are not always exact repeats. Equal values may be shown once.
How the values were obtained:
Plasma protein binding [1] = settings: rat
Plasma protein binding [2] = settings: dog
[3] = Projection of human PK parameters
Pharmacokinetics [4] = assay type: in vivo; settings: mouse
in vitro [5] = settings: human, hepatocytes
in vitro [6] = settings: dog, hepatocytes
Microsome stability [7] = settings: human
Plasma protein binding [8] = settings: mouse
Microsome stability [9] = settings: dog
LogD = assay type: physicochemical; settings: pH = 7.4
in vitro [10] = settings: rat, hepatocytes
Microsome stability [11] = settings: rat
in vitro [12] = settings: mouse, hepatocytes
Pharmacokinetics [13] = assay type: in vivo; settings: rat
in vitro [14] = settings: mouse, rat, dog, human, microsomes and hepatocytes
Pharmacokinetics [15] = assay type: in vivo; settings: dog
[16] = Plasma concentration in CTG-1017 tumor-bearing mice; assay type: in vivo; settings: Athymic Nude-Foxn1nu, mouse, po, 60 mg/kg p.o.
Plasma protein binding [17] = settings: human
Microsome stability [18] = settings: mouse
BT-549 = assay: OncoPanel Multiplexed Cytotoxicity Assay; assay type: cell-based
BT-20 = assay: OncoPanel Multiplexed Cytotoxicity Assay; assay type: cell-based
MT-3 = assay: OncoPanel Multiplexed Cytotoxicity Assay; assay type: cell-based
Hs 578T = assay: OncoPanel Multiplexed Cytotoxicity Assay; assay type: cell-based
MDA-MB-231 = assay: OncoPanel Multiplexed Cytotoxicity Assay; assay type: cell-based

CCC(CC)c1cc(N[C@H]2CC[C@H](N)C2)n2nccc2n1 [Compound 28, [(1S,3S)-3-[[5-(1-Ethylpropyl)pyrazolo[1,5-a]pyrimidin-4-ium-7-yl]amino]cyclopentyl]ammonium Dichloride]
PPB (Plasma protein binding [1]): 41 % bound | PPB (Plasma protein binding [2]): 72 % bound | mean predicted human Vd,ss ([3]; 70 kg body weight, IVIVE and allometry): 6.0 L/kg | predicted human oral bioavailability ([3]; derived from nonclinical species): 75% | half-life ([3]; human, plasma, one-compartment, read-out: estimated human terminal half-life (converted)): ~2100 min | Vd,ss (i.v.) (Pharmacokinetics [4]; i.v. 1.0 mg/kg): 3.9 L/kg | AUC (p.o.) (Pharmacokinetics [4]; p.o. 20 mg/kg): 1700 ng·h/mL | Cmax (p.o.) (Pharmacokinetics [4]; p.o. 20 mg/kg): 501 ng/mL | CLint scaled (in vitro [5]): 1.6 mL/min/kg | half-life (in vitro [5]): 2340 min | CLint scaled (in vitro [6]): 38 mL/min/kg | half-life (in vitro [6]): 195 min | Microsome stability (Microsome stability [7]): 92.5 % remaining 180 min | PPB (Plasma protein binding [8]): 48 % bound | Microsome stability (Microsome stability [9]): 68.8 % remaining 180 min | logD (LogD): 0.9 | CLint scaled (in vitro [10]): 62 mL/min/kg | half-life (in vitro [10]): 118 min | Microsome stability (Microsome stability [11]): 81.3 % remaining 180 min | CLint scaled (in vitro [12]): 44 mL/min/kg | T1/2 (i.v.) (Pharmacokinetics [13]; i.v. 2.0 mg/kg): 2.4 h | AUC (p.o.) (Pharmacokinetics [13]; p.o. 10 mg/kg): 3591 ng·h/mL | Cmax (p.o.) (Pharmacokinetics [13]; p.o. 10 mg/kg): 411 ng/mL | half-life (in vitro [14]): ≥ 120 min | T1/2 (i.v.) (Pharmacokinetics [15]; i.v. 0.50 mg/kg): 4.7 h | Vd,ss (i.v.) (Pharmacokinetics [15]; i.v. 0.50 mg/kg): 4.5 L/kg | F (Pharmacokinetics [15]; p.o. […]): >100% | CLint scaled (Pharmacokinetics [15]; plasma, iv, 0.5 mg/kg, i.v. 0.50 mg/kg): 13.4 mL/min/kg | concentration at 2 h ([16]; 2 h post-dose): 846 ng/mL and 2.9 µM | concentration at 8 h ([16]; 8 h post-dose): 73 ng/mL and 250 nM | PPB (Plasma protein binding [17]): 38 % bound | Microsome stability (Microsome stability [18]): 87.4 % remaining 180 min

CN[C@@H]1C[C@H]2O[C@@](C)([C@@H]1OC)n1c3ccccc3c3c4c(c5c6ccccc6n2c5c31)C(=O)NC4 [Staurosporine]
Apoptosis Emax (BT-549): 6.9 | Cell Count Activity Area (BT-549): 4.39 | G1/S cell cycle block (BT-549; BT-549, 72 h): 0.00531 µM | GI50 (BT-549; Homo sapiens, BT-549, 72 h, read-out: Cell count GI50): 5.56 nM | Apoptosis Emax (BT-20): 4.6 | Cell Count Activity Area (BT-20): 2.58 | G1/S cell cycle block (BT-20; BT-20, 72 h): 0.00581 µM | EC50 (BT-20; Homo sapiens, BT-20, 72 h, read-out: Cell Count EC50): 31.6 nM | GI50 (BT-20; Homo sapiens, BT-20, 72 h, read-out: Cell count GI50): 23.6 nM | Apoptosis Emax (MT-3): 10.32 | G1/S cell cycle block (MT-3; MT-3, 72 h): 0.0273 µM | GI50 (MT-3; MT-3, 72 h, read-out: Cell count GI50): 9.39 nM | Apoptosis Emax (Hs 578T): 6.48 | Cell Count Activity Area (Hs 578T): 4.99 | GI50 (Hs 578T; Homo sapiens, Hs-578T, 72 h, read-out: Cell count GI50): 1.45 nM | G1/S cell cycle block (Hs 578T; Hs 578T, 72 h): 0.000753 µM | Apoptosis Emax (MDA-MB-231): 5.32 | Cell Count Activity Area (MDA-MB-231): 5.26 | IC50 (MDA-MB-231; Homo sapiens, MDA-MB-231, 72 h, read-out: Cell count IC50): 1.69 nM | G1/S cell cycle block (MDA-MB-231; MDA-MB-231, 72 h): 0.0122 µM

From article PMC10726352, “Discovery of KB-0742, a Potent, Selective, Orally Bioavailable Small Molecule Inhibitor of CDK9 for MYC-Dependent Cancers” (Journal of Medicinal Chemistry, 2023)
